The source of these data is patent US11945808B2, “Substituted cyclohexyl compounds as NOP inhibitors” (Dart NeuroScience, LLC, priority 2018, dated 2024).

This assay has as its target human opioid NOP (Homo sapiens, UniProt P41146). The assay is described as follows: Cell-based NOP cAMP assay (LANCE cAMP, TR-FRET). The settings on record: antagonism of nociceptin in cAMP assay, cells expressing human NOP, forskolin-stimulated; values given as ranges; read-out: NOP (pIC50) (converted). The procedure: Formula (I) compounds were tested for antagonism of the nociceptin receptor (NOP) in a cell-based cAMP assay, using the LANCE cAMP Detection Kit, Perkin Elmer (Waltham, MA). This assay (LANCE cAMP) is a homogeneous, time-resolved fluorescence resonance energy transfer (TR-FRET) immunoassay designed to measure cAMP produced upon modulation of adenylyl cyclase activity by G protein-coupled receptors (GPCRs).
Cells expressing human opioid NOP (ValiScreen cell line, cat #ES-230-C Perkin Elmer (Waltham, MA) were dispensed in simulation buffer (5 mM Hepes, 0.1% BSA, 0.5 mM IBMX in Hanks Buffered Saline Solution) at 2.5 μL cells per well (400 cells/well) into a 1536 white TC-treated assay plate. Compound was then added and plates were incubated for 15 minutes at room temperature. To each well was added 2.5 μL of a solution containing forskolin (3 μM final) and nociceptin peptide ([…] final) diluted in stimulation buffer, and the plates were incubated for 30 minutes at room temperature. To each well was dispensed 5 μL of LANCE Ultra detection (1:300 dilution of anti-cAMP ULight with a 1:100 dilution of Eu-cAMP tracer diluted in cAMP Detection Buffer) reagent, and the plates were incubated for 1 hr at room temperature. The plate was then read on the ViewLux microplate reader (Perkin Elmer, Waltham, MA) using the LANCE 1536 protocol with 60 second exposure times and 50 μs delay. This protocol has an excitation wavelength of 340 nm (DUG11 filter) and emission wavelengths of 615 nm (Eu-Donor) and 665 nm (Alexa 647 cAMP antibody acceptor).
Data was analyzed, normalized, and visualized using ACAS (John McNeil & Co.). Efficacy was calculated using activity of the vehicle (DMSO) as 0% efficacy and the activity of the corresponding reference positive control (SCH 221510, Tocris Bioscience (Pittsburgh, PA), Catalog number 3240) as 100% efficacy. Activity was calculated as the ratio of donor and acceptor emissions. All curve fits and IC50 determinations were performed using a non-linear regression model. The IC50 value was measured as the concentration at which half-maximal response was calculated.

Some results are limits rather than exact numbers.

human opioid NOP, sequence (P41146 whole entry): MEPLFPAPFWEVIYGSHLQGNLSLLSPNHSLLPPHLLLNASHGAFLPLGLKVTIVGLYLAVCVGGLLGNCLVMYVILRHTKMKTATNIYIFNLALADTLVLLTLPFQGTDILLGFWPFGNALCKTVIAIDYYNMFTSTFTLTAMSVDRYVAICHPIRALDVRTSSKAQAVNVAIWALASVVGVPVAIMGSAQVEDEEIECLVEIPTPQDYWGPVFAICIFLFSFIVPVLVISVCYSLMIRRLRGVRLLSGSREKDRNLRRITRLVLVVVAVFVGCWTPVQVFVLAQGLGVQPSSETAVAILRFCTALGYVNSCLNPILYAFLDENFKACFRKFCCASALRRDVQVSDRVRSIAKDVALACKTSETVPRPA

As to `O=C1CC(NCC[C@H]2CC[C@H](c3ccc(F)cc3Cl)CC2)CCN1` (mixture of isomers) [Example 163, Racemic-4-({2-[(trans)-4-(2-Chloro-4-fluorophenyl)cyclohexyl]ethyl}amino)piperidin-2-one], the IC50 is 1 to 10 nM. Consider `Clc1cccc(Cl)c1C1CCC(CCNC2CCOCC2)CC1` (single isomer, unassigned) [Example 8, N-(2-((cis)-4-(2,6-dichlorophenyl)cyclohexyl)ethyl)tetrahydro-2H-pyran-4-amine], for which the IC50 is 1 to 10 nM. Next, `Fc1ccc([C@H]2CC[C@@H](CCNC3CCOCC3F)CC2)c(Cl)c1` (single isomer, unassigned) [Example 57, N-(2-((cis)-4-(2-chloro-4-fluorophenyl)cyclohexyl)ethyl)-3-fluorotetrahydro-2H-pyran-4-amine]: under 1 nM.

Regarding `Fc1cnc([C@H]2CC[C@H](CCNC3CCOCC3)CC2)nc1` [Example 12, N-(2-((trans)-4-(5-fluoropyrimidin-2-yl)cyclohexyl)ethyl)tetrahydro-2H-pyran-4-amine], the IC50 is over 1000 nM. Turning to `Cc1c(F)c(F)ccc1[C@H]1CC[C@H](CCNC2(C(N)=O)CCOCC2)CC1` [Example 49, 4-((2-((trans)-4-(3,4-difluoro-2-methylphenyl)cyclohexyl)ethyl)amino)tetrahydro-2H-pyran-4-carboxamide], the IC50 is 100 to 1000 nM. For `CNC(=O)C1(NCC[C@H]2CC[C@@H](c3ncc(F)cc3C(F)(F)F)CC2)CCOCC1` [Example 50, 4-((2-((cis)-4-(5-fluoro-3-(trifluoromethyl)pyridin-2-yl)cyclohexyl)ethyl)amino)-N-methyltetrahydro-2H-pyran-4-carboxamide], the IC50 is over 1000 nM.

For the molecule `CNC(=O)C1(NCC[C@H]2CC[C@H](c3ncc(F)cc3C(F)(F)F)CC2)CCOCC1` [Example 51, 4-((2-((trans)-4-(5-fluoro-3-(trifluoromethyl)pyridin-2-yl)cyclohexyl)ethyl)amino)-N-methyltetrahydro-2H-pyran-4-carboxamide], the IC50 was over 1000 nM. Under `Cc1nccnc1[C@H]1CC[C@H](CCNC2CCOCC2)CC1` [Example 88, N-(2-((trans)-4-(3-methylpyrazin-2-yl)cyclohexyl)ethyl)tetrahydro-2H-pyran-4-amine] stands over 1000 nM.

As to `CC1(NCCC2CCC(c3cccc(F)c3Cl)CC2)CCCC1` (stereo not shown) [Example 106, N-{2-[4-(2-Chloro-3-fluorophenyl)cyclohexyl]ethyl}-1-methylcyclopentan-1-amine], the IC50 was over 1000 nM. Regarding `Cc1ccncc1C1CCC(CCNC2(C)CCCC2)CC1` (stereo not shown) [Example 111, 1-Methyl-N-{2-[4-(4-methylpyridin-3-yl)cyclohexyl]ethyl}cyclopentan-1-amine], the IC50 was over 1000 nM. Under `NC(=O)C1(NCCC2CCC(c3cccc(F)c3Cl)CC2)CCCC1` (stereo not shown) [Example 114, 1-({2-[4-(2-Chloro-3-fluorophenyl)cyclohexyl]ethyl}amino)cyclopentane-1-carboxamide] stands over 1000 nM. With `NC(=O)C1(NCCC2CCC(c3ncccc3Cl)CC2)CCCC1` (stereo not shown) [Example 116, 1-({2-[4-(3-Chloropyridin-2-yl)cyclohexyl]ethyl}amino)cyclopentane-1-carboxamide], the IC50 was over 1000 nM.

Regarding `Cc1cccnc1C1CCC(CCNC2(C(N)=O)CCCC2)CC1` (stereo not shown) [Example 117, 1-({2-[4-(3-Methylpyridin-2-yl)cyclohexyl]ethyl}amino)cyclopentane-1-carboxamide], the IC50 is over 1000 nM.

For `Cc1ccncc1C1CCC(CCNC2(C(N)=O)CCCC2)CC1` (stereo not shown) [Example 118, 1-({2-[4-(4-Methylpyridin-3-yl)cyclohexyl]ethyl}amino)cyclopentane-1-carboxamide], the IC50 is over 1000 nM. Under `Cc1cnccc1C1CCC(CCNC2(C)CCCC2)CC1` (stereo not shown) [Example 121, 1-Methyl-N-{2-[4-(3-methylpyridin-4-yl)cyclohexyl]ethyl}cyclopentan-1-amine] stands over 1000 nM; under `Cc1cnccc1C1CCC(CCNC2(C(N)=O)CCCC2)CC1` (stereo not shown) [Example 123, 1-({2-[4-(3-Methylpyridin-4-yl)cyclohexyl]ethyl}amino)cyclopentane-1-carboxamide], over 1000 nM. Next, `Cc1cnccc1C1CCC(CCNC2(C)CCOCC2)CC1` (stereo not shown) [Example 139, 4-Methyl-N-{2-[4-(3-methylpyridin-4-yl)cyclohexyl]ethyl}oxan-4-amine]: over 1000 nM; `COCC1(NCCC2CCC(c3ncccc3Cl)CC2)CCOCC1` (stereo not shown) [Example 146, N-{2-[4-(3-Chloropyridin-2-yl)cyclohexyl]ethyl}-4-(methoxymethyl)oxan-4-amine]: over 1000 nM; `CC(=O)N1CCC(NCCC2CCC(c3cccc(F)c3Cl)CC2)CC1` (stereo not shown) [Example 171, 1-[4-({2-[4-(2-Chloro-3-fluorophenyl)cyclohexyl]ethyl}amino)piperidin-1-yl]ethan-1-one]: over 1000 nM.

`CC(=O)N1CCC(NCCC2CCC(c3ncc(F)cc3Cl)CC2)CC1` (stereo not shown) [Example 172, 1-[4-({2-[4-(3-Chloro-5-fluoropyridin-2-yl)cyclohexyl]ethyl}amino)piperidin-1-yl]ethan-1-one]: the IC50 was over 1000 nM.

As for `CC(=O)N1CCC(NCCC2CCC(c3ncccc3Cl)CC2)CC1` (stereo not shown) [Example 173, 1-[4-({2-[4-(3-Chloropyridin-2-yl)cyclohexyl]ethyl}amino)piperidin-1-yl]ethan-1-one], the IC50 was over 1000 nM. On to `CC(=O)N1CCC(NCCC2CCC(c3ncccc3C)CC2)CC1` (stereo not shown) [Example 174, 1-[4-({2-[4-(3-Methylpyridin-2-yl)cyclohexyl]ethyl}amino)piperidin-1-yl]ethan-1-one], for which the IC50 is over 1000 nM. Next, `CC(=O)N1CCC(NCCC2CCC(c3cnccc3C)CC2)CC1` (stereo not shown) [Example 175, 1-[4-({2-[4-(4-Methylpyridin-3-yl)cyclohexyl]ethyl}amino)piperidin-1-yl]ethan-1-one]: over 1000 nM. Next, `CC(=O)N1CCC(NCCC2CCC(c3cc(F)ccc3Cl)CC2)CC1` (stereo not shown) [Example 178, 1-[4-({2-[4-(2-Chloro-5-fluorophenyl)cyclohexyl]ethyl}amino)piperidin-1-yl]ethan-1-one]: over 1000 nM; `CN1CCC(NCCC2CCC(c3cccc(F)c3Cl)CC2)CC1` (stereo not shown) [Example 179, N-{2-[4-(2-Chloro-3-fluorophenyl)cyclohexyl]ethyl}-1-methylpiperidin-4-amine]: over 1000 nM; `CN1CCC(NCCC2CCC(c3ncccc3Cl)CC2)CC1` (stereo not shown) [Example 181, N-{2-[4-(3-Chloropyridin-2-yl)cyclohexyl]ethyl}-1-methylpiperidin-4-amine]: over 1000 nM. As to `Cc1cccnc1C1CCC(CCNC2CCN(C)CC2)CC1` (stereo not shown) [Example 182, 1-Methyl-N-{2-[4-(3-methylpyridin-2-yl)cyclohexyl]ethyl}piperidin-4-amine], the IC50 is over 1000 nM.

`Cc1cnccc1C1CCC(CCNC2CCN(C)CC2)CC1` (stereo not shown) [Example 187, 1-Methyl-N-{2-[4-(3-methylpyridin-4-yl)cyclohexyl]ethyl}piperidin-4-amine]: the IC50 was over 1000 nM.
